Reference: patent publication US5843950A, “1,4-dihydropyridine compound and pharmaceutical composition containing the same” (Nikken Chemicals Co., Ltd., priority 1994, dated 1998)
Read-outs that look alike come from different tables or passages of the source.

Tests used:
[1] = system: TxA2 synthesis; assay: TxA2 synthesis inhibiting action test (human blood platelet microsomes); assay type: biochemical; conditions: prostaglandin H2
Experimental: TxA2 Synthesis Inhibiting Action Test
One ml of a buffer (20 mM Tris-HCl buffer, 1 mM EDTA, pH 7.5) containing human blood platelet microsomes (50 μg protein/ml) and the test compound (final concentration 10^-7 M) was agitated, then incubated at 0° C. for 30 minutes. To this was added prostaglandin H2 (100 ng/2 μl). This was incubated at 23° C. for 3 minutes to cause a reaction. Next, 1M hydrochloric acid was added to make the solution acidic and stop the reaction, then this was neutralized by 1M Tris-Base and centrifuged at 3000 rpm for 20 minutes. The amount of the TxB2 in the supernatant was measured by the EIA method (Cayman Co. kit).

[2] = system: KCl contraction in rat arteries (thoracic aorta); assay: Action easing KCl contraction in rat arteries (thoracic aorta ring); conditions: read-out: IC50 value (50% inhibitory concentration of hyperpotassium contraction), Test Example 7, Table 7, 37° C.
Experimental: Action easing KCl contraction in rat arteries
The specimen was stabilized for approximately 60 minutes, then a potassium chloride solution was added to the Magnus tube to give a final concentration of […]. The positive control compound or the compound of the present invention was cumulatively added from 1×10^-10 M to 1×10^-4 M when the contraction reaction occurring at that time reached equilibrium. The contraction force was recorded by an FD-pickup (made by Nihon Kodensha) via a polygraph (made by Nihon Kodensha).

[3] = system: VCR resistant murine leukemia (P388/VCR) cells; assay: In vivo effect for overcoming resistance to vincristine in VCR resistant murine leukemia (P388/VCR) bearing mice; set-up: species or system CDF1 male mice
From the text: In vivo test of action suppressing proliferation of cancer cells by concomitant use with anti-cancer drug
The number of survival days were found and the life prolonging rate (T/C) with respect to the controls was found. The effect in overcoming resistance to an anti-cancer drug (T/V) was found by the following formula.
Effect for overcoming resistance to an anti-cancer drug (T/V) %
=[Life prolonging rate (T/C) in case of concomitant use of VCR and the compound of the present invention]/[Life prolonging rate (T/C) in case of VCR alone]×100
Using Compound 18 to Compound 22 and Compound 32, the same procedure was followed as in Test Example 5 to find the effect for overcoming resistance to an anti-cancer drug in vincristine (VCR) resistant murine leukemia cell bearing mice.

[4] = system: KCl contraction in rat arteries (thoracic aorta); assay: Action easing KCl contraction in rat arteries (thoracic aorta ring); conditions: read-out: IC50 value (50% inhibitory concentration of hypercalcemic contraction), Test Example 8, Table 8
[5] = Test Example 5, Table 5, T/C with VCR + compound over T/C with VCR alone ×100
[6] = Test Example 5, Table 5, VCR 100 μg/kg i.p. 5 days with compound 100 mg/kg (verapamil 60, nicardipine 75 mg/kg)
[7] = Test Example 6, Table 6, same procedure as Test Example 5

## CCCC1C(C(=O)OCCCc2cccnc2)=C(C)NC(C)=C1C(=O)OCCCc1cccnc1 [Compound 2, 2,6-dimethyl-4-n-propyl-1,4-dihydropyridine-3,5-dicarboxylic acid bis[3-(3-pyridyl)propyl]ester]
[1]
  TxA2 synthesis inhibiting action Rate of suppression at 10^-7 mol (%): 72.0%
[2]
  IC50: > 30 µM

## CC1=C(C(=O)OCCCc2cccnc2)C(CC(C)(C)C)C(C(=O)OCCCc2cccnc2)=C(C)N1 [Compound 4, 2,6-dimethyl-4-(2,2-dimethylpropyl)-1,4-dihydropyridine-3,5-dicarboxylic acid bis[3-(3-pyridyl)propyl]ester]
[1]
  TxA2 synthesis inhibiting action Rate of suppression at 10^-7 mol (%): 49.1%
[3]; [5]
  Effect for overcoming resistance T/V (%): 136%
[3]; [6]
  Life prolonging rate T/C (%): 145%
  Mean days of survival: 14.5 days
[2]
  IC50: 20.5 µM

## CC1=C(C(=O)OCCCc2cccnc2)C(C(C)c2ccccc2)C(C(=O)OCCCc2cccnc2)=C(C)N1 (stereo not drawn) [Compound 7, 2,6-dimethyl-4-(1-phenylethyl)-1,4-dihydropyridine-3,5-dicarboxylic acid bis[3-(3-pyridyl)propyl]ester]
[2]
  IC50: 13 µM

## CC1=C(C(=O)OCCCc2cccnc2)C(C2CCCCC2)C(C(=O)OCCCc2cccnc2)=C(C)N1 [Compound 8, 2,6-dimethyl-4-cyclohexyl-1,4-dihydropyridine-3,5-dicarboxylic acid bis[3-(3-pyridyl)propyl]ester]
[1]
  TxA2 synthesis inhibiting action Rate of suppression at 10^-7 mol (%): 63.0%

## CCOC(=O)C1CC1C1C(C(=O)OCCCc2cccnc2)=C(C)NC(C)=C1C(=O)OCCCc1cccnc1 (stereo not drawn) [Compound 9, 2,6-dimethyl-4-(2-ethoxycarbonylcyclopropyl)-1,4-dihydropyridine-3,5-dicarboxylic acid bis[3-(3-pyridyl)propy]ester]
[2]
  IC50: 11.5 µM

## CC1=C(C(=O)OCCCc2cccnc2)C(C=Cc2ccco2)C(C(=O)OCCCc2cccnc2)=C(C)N1 [Compound 10, 2,6-dimethyl-4-(2-(2-furyl)ethenyl)-1,4-dihydropyridine-3,5-dicarboxylic acid bis[3-(3-pyridyl)propyl]ester]
[2]
  IC50: > 30 µM

## CC(C)=CCCC(C)CC1C(C(=O)OCCCc2cccnc2)=C(C)NC(C)=C1C(=O)OCCCc1cccnc1 (stereo not drawn) [Compound 11, 2,6-dimethyl-4-(2,6-dimethyl-5-heptenyl)-1,4-dihydropyridine-3,5-dicarboxylic acid bis[3-(3-pyridyl)propyl]ester]
[3]; [5]
  Effect for overcoming resistance T/V (%): 128%
[3]; [6]
  Life prolonging rate T/C (%): 137%
  Mean days of survival: 13.7 days
[2]
  IC50: > 30 µM

## CC1=C(C(=O)OCCCc2cccnc2)C(CCc2ccccc2)C(C(=O)OCCCc2cccnc2)=C(C)N1 [Compound 12, 2,6-dimethyl-4-(2-phenylethyl)-1,4-dihydropyridine-3,5-dicarboxylic acid bis[3-(3-pyridyl)propyl]ester]
[2]
  IC50: > 30 µM

## CCCCCCCCC1C(C(=O)OCCC#N)=C(C)NC(C)=C1C(=O)OCCCc1cccnc1 (stereo not drawn) [Compound 14, 2,6-dimethyl-4-n-octyl-1,4-dihydropyridine-3,5-dicarboxylic acid 3-(2-cyanoethyl) ester, 5-[3-(3-pyridyl)propyl]ester]
[4]
  IC50: 8.4 µM

## CCC(C)C1C(C(=O)OCCCc2cccnc2)=C(C)NC(C)=C1C(=O)OCCCc1cccnc1 (stereo not drawn) [Compound 19, 2,6-dimethyl-4-(1-methylpropyl)-1,4-dihydropyridine-3,5-dicarboxylic acid bis[3-(3-pyridyl)propyl]ester]
[3]; [7]
  Effect for overcoming resistance T/V (%): 173%
  Life prolonging rate T/C (%): 176%
  Mean days of survival: 18.8 days

## CCC(CC)C1C(C(=O)OCCCc2cccnc2)=C(C)NC(C)=C1C(=O)OCCCc1cccnc1 [Compound 20, 2,6-dimethyl-4-(1-ethylpropyl)-1,4-dihydropyridine-3,5-dicarboxylic acid bis[3-(3-pyridyl)propyl]ester]
[3]; [7]
  Effect for overcoming resistance T/V (%): 150%
  Life prolonging rate T/C (%): 148%
  Mean days of survival: 15.8 days
[4]
  IC50: 4.2 µM

## CCCCC(CC)C1C(C(=O)OCCCc2cccnc2)=C(C)NC(C)=C1C(=O)OCCCc1cccnc1 (stereo not drawn) [Compound 21, 2,6-dimethyl-4-(1-ethylpentyl)-1,4-dihydropyridine-3,5-dicarboxylic acid bis[3-(3-pyridyl)propyl]ester]
[3]; [7]
  Effect for overcoming resistance T/V (%): 138%
  Life prolonging rate T/C (%): 140%
  Mean days of survival: 15.0 days
[4]
  IC50: 7 µM

## CC1=C(C(=O)OCCCc2cccnc2)C(CC(C)CC(C)(C)C)C(C(=O)OCCCc2cccnc2)=C(C)N1 (stereo not drawn) [Compound 22, 2,6-dimethyl-4-(2,4,4-trimethylpentyl)-1,4-dihydropyridine-3,5-dicarboxylic acid bis[3-(3-pyridyl)propyl]ester]
[3]; [7]
  Effect for overcoming resistance T/V (%): 150%
  Life prolonging rate T/C (%): 148%
  Mean days of survival: 15.8 days
[4]
  IC50: 54 µM

## CCCCCCCCC1C(C(=O)OCCN2CCN(Cc3cccnc3)CC2)=C(C)NC(C)=C1C(=O)OCCN1CCN(Cc2cccnc2)CC1 [Compound 23, 2,6-dimethyl-4-n-octyl-1,4-dihydropyridine-3,5-dicarboxylic acid bis[2-(4-(3-pyridylmethyl)piperazin-1-yl)ethyl]ester]
[3]; [5]
  Effect for overcoming resistance T/V (%): 123%
[3]; [6]
  Life prolonging rate T/C (%): 132%
  Mean days of survival: 13.2 days

## CC1=C(C(=O)OCCCc2cccnc2)C(C(C)C)C(C(=O)OCCN2CCN(Cc3cccnc3)CC2)=C(C)N1 (stereo not drawn) [Compound 28, 2,6-dimethyl-4-isopropyl-1,4-dihydropyridine-3,5-dicarboxylic acid 3-[2-(4-(3-pyridylmethyl)piperazin-1-yl)ethyl]ester, 5-[3-(3-pyridyl)propyl]ester]
[1]
  TxA2 synthesis inhibiting action Rate of suppression at 10^-7 mol (%): 60.2%

## CC1=C(C(=O)OCCCCc2cccnc2)C(C(C)C)C(C(=O)OCCCCc2cccnc2)=C(C)N1 [Compound 30, 2,6-dimethyl-4-isopropyl-1,4-dihydropyridine-3,5-dicarboxylic acid bis[4-(3-pyridyl)butyl]ester]
[1]
  TxA2 synthesis inhibiting action Rate of suppression at 10^-7 mol (%): 69.7%

## CCCCCC#CC1C(C(=O)OCCCc2cccnc2)=C(C)NC(C)=C1C(=O)OCCCc1cccnc1 [Compound 32, 2,6-dimethyl-4-(1-heptynyl)-1,4-dihydropyridine-3,5-dicarboxylic acid bis[3-(3-pyridyl)propyl]ester]
[3]; [7]
  Effect for overcoming resistance T/V (%): 133%
  Life prolonging rate T/C (%): 136%
  Mean days of survival: 14.5 days
[4]
  IC50: 10.5 µM

## CC1=C(C(=O)OCCCc2cccnc2)C(CC2CCCC(C)(C)C2)C(C(=O)OCCCc2cccnc2)=C(C)N1 (stereo not drawn) [Compound 33, 2,6-dimethyl-4-(3,3-dimethylcyclohexylmethyl)-1,4-dihydropyridine-3,5-dicarboxylic acid bis[3-(3-pyridyl)propyl]ester]
[4]
  IC50: 6.2 µM

## CC1=C(C(=O)OCCCc2cccnc2)CC(C(=O)OCCCc2cccnc2)=C(C)N1 [Control 1, reference compound]
[1]
  TxA2 synthesis inhibiting action Rate of suppression at 10^-7 mol (%): 74.7%

## CC1=C(C(=O)OCc2cccnc2)C(c2ccccc2[N+](=O)[O-])C(C(=O)OCc2cccnc2)=C(C)N1 [Control 2, reference compound]
[1]
  TxA2 synthesis inhibiting action Rate of suppression at 10^-7 mol (%): 77.9%

## CC1=C(C(=O)OCCCc2cccnc2)C(c2ccc(C(=O)O)cc2)C(C(=O)OCCCc2cccnc2)=C(C)N1 [Control 3, reference compound]
[1]
  TxA2 synthesis inhibiting action Rate of suppression at 10^-7 mol (%): 37.6%

## COCCOC(=O)C1=C(C)NC(C)=C(C(=O)OC(C)C)C1c1cccc([N+](=O)[O-])c1 (stereo not drawn) [Nimodipine, reference compound]
[2]
  IC50: 0.08 µM

## O=C(O)/C=C/c1ccc(Cn2ccnc2)cc1 [OKY-046, reference compound]
[1]
  TxA2 synthesis inhibiting action Rate of suppression at 10^-7 mol (%): 86.4%

## COc1ccc(CCN(C)CCCC(C#N)(c2ccc(OC)c(OC)c2)C(C)C)cc1OC (stereo not drawn) [Verapamil, verapamil, reference compound]
[3]; [5]
  Effect for overcoming resistance T/V (%): 127%
[3]; [6]
  Life prolonging rate T/C (%): 136%
  Mean days of survival: 13.6 days
[2]
  IC50: 2.35 µM
